Source: patent US8383637B2, “2-amino-quinazoline derivatives useful as inhibitors of β-secretase (BACE)” (Jansssen Pharmaceutica N.V., priority 2004, dated 2013)

Target: T1, β-secretase(BACE) (Homo sapiens, UniProt P56817)
T1 construct: purchased Panvera
Assay: BACE FS1% Inhibition Assay
Format: biochemical
Conditions: FS1 substrate
In short: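 Percent inhibition at each tested concentration, referenced to enzyme-free blank and vehicle-only positive control. Reaction: compound and BACE (4 μg/mL working stock) mixed 20 min at room temperature before FS1 substrate (300 μg/mL working stock), then 1 h at room temperature.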

T1 sequence (P56817 46-501): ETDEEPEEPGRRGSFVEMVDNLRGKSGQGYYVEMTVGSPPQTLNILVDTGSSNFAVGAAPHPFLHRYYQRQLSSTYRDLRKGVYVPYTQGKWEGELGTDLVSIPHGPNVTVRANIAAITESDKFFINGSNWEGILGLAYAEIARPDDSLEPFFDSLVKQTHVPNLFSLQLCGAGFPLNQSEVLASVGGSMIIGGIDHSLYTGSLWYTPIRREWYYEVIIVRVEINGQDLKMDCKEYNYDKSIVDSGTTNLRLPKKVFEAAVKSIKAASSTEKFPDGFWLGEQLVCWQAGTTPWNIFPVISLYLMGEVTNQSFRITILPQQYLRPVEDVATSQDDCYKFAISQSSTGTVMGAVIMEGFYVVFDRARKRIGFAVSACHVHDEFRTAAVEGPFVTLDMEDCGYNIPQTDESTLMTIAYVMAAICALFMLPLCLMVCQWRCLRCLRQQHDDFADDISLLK

SMILES	% Inhibition (FS) (0.3 μM test compound)	% Inhibition (FS) (1 μM test compound)	% Inhibition (FS) (3 μM test compound)	% Inhibition (FS) (0.3 μM test compound, 0.3 µM)	% Inhibition (FS) (1 μM test compound, 1 µM)	% Inhibition (FS) (3 μM test compound, 3 µM)
COC1CCCC(C(=O)NCCN2Cc3cc(-c4ccccc4)ccc3N=C2N)C1 (stereo not drawn) [Compound 703]	<30%	46%	83%	–	–	–
NC1=Nc2ccc(C3=CCCCC3)cc2CN1CCNC(=O)C1CCC(C(F)(F)F)CC1 (stereo not drawn) [Compound 704]	<30%	<30%	<30%	–	–	–
CC(=O)N1CCC(C(=O)NCCN2Cc3cc(C4=CCCCC4)ccc3N=C2N)CC1 [Compound 705]	<30%	<30%	<30%	–	–	–
COC1CCCC(C(=O)NCCN2Cc3cc(C4=CCCC4)ccc3N=C2N)C1 (stereo not drawn) [Compound 706]	<30%	<30%	<30%	–	–	–
NC1=Nc2ccc(C3=CCCC3)cc2CN1CCNC(=O)C1CCC(C(F)(F)F)CC1 (stereo not drawn) [Compound 707]	<30%	<30%	<30%	–	–	–
CN(C(=O)CC[C@@H](C1CCCCC1)N1Cc2cc(Oc3ccccc3)ccc2N=C1N)C1CCC2(CC1)OCCO2 [Compound 710]	<30%	68%	126%	–	–	–
CN(C(=O)CCC(C)(C)N1Cc2cc(Oc3ccccc3)ccc2N=C1N)C1CCCCC1 [Compound 738]	14%	28%	61%	–	–	–

Continued, values first:

% Inhibition (FS) (0.3 μM test compound)	% Inhibition (FS) (1 μM test compound)	% Inhibition (FS) (3 μM test compound)	% Inhibition (FS) (0.3 μM test compound, 0.3 µM)	% Inhibition (FS) (1 μM test compound, 1 µM)	% Inhibition (FS) (3 μM test compound, 3 µM)	SMILES
<30%	43%	113%	–	–	–	CN(C(=O)CC[C@@H](C1CCCCC1)N1Cc2cc(Oc3ccccc3)ccc2N=C1N)C1CCC(=O)CC1 [Compound 711]
<30%	<30%	72%	–	–	–	COc1ccccc1-c1ccc2c(c1)CN([C@@H](CCC(=O)N(C)Cc1csc(-c3ccccc3)n1)C1CCCCC1)C(N)=N2 [Compound 716]
33%	39%	72%	–	–	–	COc1ccccc1-c1ccc2c(c1)CN([C@@H](CCC(=O)N(C)Cc1cnn(-c3ccccc3)c1)C1CCCCC1)C(N)=N2 [Compound 717]
<30%	30%	114%	–	–	–	COc1ccccc1-c1ccc2c(c1)CN([C@@H](CCC(=O)N(C)Cc1cc(C)no1)C1CCCCC1)C(N)=N2 [Compound 718]
31%	<30%	81%	–	–	–	COc1ccccc1-c1ccc2c(c1)CN([C@@H](CCC(=O)N(C)Cc1cc(-c3ccccc3)on1)C1CCCCC1)C(N)=N2 [Compound 719]
35%	35%	78%	–	–	–	CN(Cc1csc(-c2ccccc2)n1)C(=O)CC[C@@H](C1CCCCC1)N1Cc2cc(-c3ccccc3F)ccc2N=C1N [Compound 722]
38%	<30%	65%	–	–	–	CN(Cc1cc(-c2ccccc2)on1)C(=O)CC[C@@H](C1CCCCC1)N1Cc2cc(-c3ccccc3F)ccc2N=C1N [Compound 724]
43%	58%	97%	–	–	–	CC(C)N1CCC(N(C)C(=O)CC[C@@H](C2CCCCC2)N2Cc3cc(Oc4ccccc4)ccc3N=C2N)CC1 [Compound 728]
–	–	–	22%	34%	97%	CCOC(=O)C1CCC(N(C)C(=O)CCC(C2CCCCC2)N2Cc3cc(Oc4ccccc4)ccc3N=C2N)CC1 (stereo not drawn) [Compound 737]
